Each structure is given as a SMILES string.

For this experiment, the target named is dog PDE3A recombinant enzyme (Canis lupus familiaris, UniProt A0A8I3NYE0). Nature of the experiment: cPDE3A assay (fluorescent polarization). The conditions noted are these: canine PDE3A, read-out: cPDE3 Inhibition (IC50). Type of experiment: biochemical. As to the method:
cPDE3A Assay (Fluorescent Polarization)
The canine PDE3A assay kit was purchased from BPS Bioscience (San Diego, CA) which included dog PDE3A recombinant enzyme, FAM-cyclic-3′,5′-AMP (20 μM), PDE3 assay buffer, binding agent, binding agent diluent and microtiter 96-well plates. Compounds were initially dissolved in DMSO. The stock concentration was subsequently diluted in cPDE assay buffer (10× stock) and serially diluted to give a concentration response curve starting at 10 μM (≥7 total concentrations). Following the serial dilution, compound solution (0.1% final DMSO) was transferred to an assay plate (96-well) where the remaining canine PDE3A assay reagents were dispensed according to the BPS Bioscience® protocol (catalog #79735) procedure using a final concentration of 5 pg/μL of enzyme. Each compound was evaluated for the inhibition of the canine PDE3A enzyme activity using the measurement of fluorescent polarization changes. The 50% inhibition concentration (IC50) nM was calculated and reported.

Sequence of dog PDE3A recombinant enzyme (A0A8I3NYE0 1-1135): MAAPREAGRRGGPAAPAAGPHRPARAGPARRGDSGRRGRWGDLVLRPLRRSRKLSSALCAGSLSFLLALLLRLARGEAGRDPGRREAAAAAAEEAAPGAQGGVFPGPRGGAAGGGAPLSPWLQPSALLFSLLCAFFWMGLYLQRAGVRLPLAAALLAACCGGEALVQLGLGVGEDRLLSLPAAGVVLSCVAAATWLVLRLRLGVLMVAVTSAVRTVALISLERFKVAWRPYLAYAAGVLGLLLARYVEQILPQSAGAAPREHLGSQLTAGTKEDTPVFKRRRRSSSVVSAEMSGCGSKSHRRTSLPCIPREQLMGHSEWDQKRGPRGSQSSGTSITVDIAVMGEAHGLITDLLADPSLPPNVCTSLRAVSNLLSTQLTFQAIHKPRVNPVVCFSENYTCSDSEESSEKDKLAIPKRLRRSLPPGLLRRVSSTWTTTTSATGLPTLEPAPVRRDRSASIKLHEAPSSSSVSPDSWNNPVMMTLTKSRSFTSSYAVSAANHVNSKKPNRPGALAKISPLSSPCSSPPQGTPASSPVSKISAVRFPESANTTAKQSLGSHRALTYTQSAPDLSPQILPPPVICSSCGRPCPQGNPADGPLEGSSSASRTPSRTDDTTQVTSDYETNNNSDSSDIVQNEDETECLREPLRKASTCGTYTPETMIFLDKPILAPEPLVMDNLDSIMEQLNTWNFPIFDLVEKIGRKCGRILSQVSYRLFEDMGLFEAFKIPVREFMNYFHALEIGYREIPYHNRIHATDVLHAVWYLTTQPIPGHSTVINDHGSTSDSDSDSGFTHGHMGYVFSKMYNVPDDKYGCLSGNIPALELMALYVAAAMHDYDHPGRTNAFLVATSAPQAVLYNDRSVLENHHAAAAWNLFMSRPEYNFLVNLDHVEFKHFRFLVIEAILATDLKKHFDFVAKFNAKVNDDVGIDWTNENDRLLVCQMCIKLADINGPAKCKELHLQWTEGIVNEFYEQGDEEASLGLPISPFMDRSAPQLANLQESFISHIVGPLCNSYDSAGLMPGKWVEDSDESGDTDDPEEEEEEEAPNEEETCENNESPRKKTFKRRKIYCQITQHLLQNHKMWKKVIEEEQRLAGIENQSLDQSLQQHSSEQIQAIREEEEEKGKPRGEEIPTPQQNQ

One may read the IC50 as the concentration at which inhibition is half-maximal. Regarding `C[C@@H]1CC(=O)NN=C1c1cc(Cl)c2c(c1)C(C)(C)C(=O)N2` [Example #33, (R)-7-chloro-3,3-dimethyl-5-(4-methyl-6-oxo-1,4,5,6-tetrahydropyridazin-3-yl)indolin-2-one], the IC50 came to 3.2 nM.
To `CNc1nc2c(F)cc(C3=NNC(=O)CC3C)cc2s1` (stereo not shown) [Example #34, 6-(4-fluoro-2-(methylamino)benzo[d]thiazol-6-yl)-5-methyl-4,5-dihydropyridazin-3 (2H)-one] belongs 3.7 nM.
To `CC1CC(=O)NN=C1c1cc(Cl)c2[nH]c(=O)ccc2c1` (stereo not shown) [Example #35, 8-chloro-6-(4-methyl-6-oxo-1,4,5,6-tetrahydropyridazin-3-yl)quinolin-2 (1H)-one] belongs 3.2 nM; to `CC1CC(=O)NN=C1c1cc2c(c(Cl)c1F)NC(=O)C2(C)C` (stereo not shown) [Example #36, 7-chloro-6-fluoro-3,3-dimethyl-5-(4-methyl-6-oxo-1,4,5,6-tetrahydropyridazin-3-yl)indolin-2-one], 3.6 nM; to `CC1CC(=O)NN=C1c1cc(F)c2nc(N3CC(O)C3)sc2c1` (stereo not shown) [Example #37, 6-(4-fluoro-2-(3-hydroxyazetidin-1-yl)benzo[d]thiazol-6-yl)-5-methyl-4,5-dihydropyridazin-3 (2H)-one], 6.1 nM.
To `CC1CC(=O)NN=C1c1cc(C#N)c2nc(N)sc2c1` (stereo not shown) [Example #38, 2-amino-6-(4-methyl-6-oxo-1,4,5,6-tetrahydropyridazin-3-yl)benzo[d]thiazole-4-carbonitrile] belongs 7.4 nM; to `CC1CC(=O)NN=C1c1cc(Cl)c2c(c1)CNC2=O` (stereo not shown) [Example #39, 7-chloro-5-(4-methyl-6-oxo-1,4,5,6-tetrahydropyridazin-3-yl)isoindolin-1-one], 10.5 nM; to `CC1CC(=O)NN=C1c1cc(C#N)c2[nH]c(=O)ccc2c1` (stereo not shown) [Example #40, 6-(4-methyl-6-oxo-1,4,5,6-tetrahydropyridazin-3-yl)-2-oxo-1,2-dihydroquinoline-8-carbonitrile], 12 nM.
As for `CC1CC(=O)NN=C1c1cc(Cl)c2c(c1)C(C)(C)NC2=O` (stereo not shown) [Example #41, 7-chloro-3,3-dimethyl-5-(4-methyl-6-oxo-1,4,5,6-tetrahydropyridazin-3-yl)isoindolin-1-one], the half-inhibitory concentration (IC50) was found to be 15.4 nM.
`CC1CC(=O)NN=C1c1cc(Cl)c2[nH]c(=O)n(C)c2c1` (stereo not shown) [Example #42, 4-chloro-1-methyl-6-(4-methyl-6-oxo-1,4,5,6-tetrahydropyridazin-3-yl)-1,3-dihydro-2H-benzo[d]imidazol-2-one]: the IC50 came to 16.2 nM.
To `CC1CC(=O)NN=C1c1cc(F)c2c(c1)C1(CCC1)C(=O)N2` (stereo not shown) [Example #43, 7′-fluoro-5′-(4-methyl-6-oxo-1,4,5,6-tetrahydropyridazin-3-yl)spiro[cyclobutane-1,3′-indolin]-2′-one] belongs 35.5 nM; to `CC1(C)C(=O)Nc2c(Cl)cc(C3=NNC(=O)CC3)cc21` [Example #44, 7-chloro-3,3-dimethyl-5-(6-oxo-1,4,5,6-tetrahydropyridazin-3-yl)indolin-2-one], 94 nM.
To `CC1CC(=O)NN=C1c1cc(F)c2nc(NCc3cnn(C)c3)sc2c1` (stereo not shown) [Example #46, 6-(4-fluoro-2-(((1-methyl-1H-pyrazol-4-yl)methyl)amino)benzo[d]thiazol-6-yl)-5-methyl-4,5-dihydropyridazin-3 (2H)-one] belongs 3.4 nM; to `Cc1n[nH]c2c(Cl)cc(C3=NNC(=O)CC3C)cc12` (stereo not shown) [Example #47, 6-(7-chloro-3-methyl-1H-indazol-5-yl)-5-methyl-4,5-dihydropyridazin-3 (2H)-one], 4 nM; to `CC1CC(=O)NN=C1c1cc(F)c2c(c1)CC(=O)N2` (stereo not shown) [Example #50, 7-fluoro-5-(4-methyl-6-oxo-1,4,5,6-tetrahydropyridazin-3-yl)indolin-2-one], 4.9 nM.
To `C[C@H]1CC(=O)NN=C1c1cc(Cl)c2c(c1)C(C)(C)NC2=O` [Example #51, (S)-7-chloro-3,3-dimethyl-5-(4-methyl-6-oxo-1,4,5,6-tetrahydropyridazin-3-yl)isoindolin-2-one] belongs 336 nM.
Turning to `CC1SC(=O)NN=C1c1cc2c(c(-c3ccc(S(C)(=O)=O)cc3)c1)NC(=O)C2` (stereo not shown) [Example #63, 6-methyl-5-(7-(4-(methylsulfonyl)phenyl)-2-oxoindolin-5-yl)-3,6-dihydro-2H-1,3,4-thiadiazin-2-one], the half-maximal inhibitory concentration (IC50) was found to be 30.5 nM.
The value for `CC1SC(=O)NN=C1c1cc(Br)c2c(c1)CCC(=O)N2` (stereo not shown) [Example #65, 5-(8-bromo-2-oxo-1,2,3,4-tetrahydroquinolin-6-yl)-6-methyl-3,6-dihydro-2H-1,3,4-thiadiazin-2-one] was 4.3 nM; that for `C[C@H]1SC(=O)NN=C1c1cc(Cl)c2c(c1)C(C)(C)CC(=O)N2` [Example #67, (6R)-5-(8-chloro-4,4-dimethyl-2-oxo-1,2,3,4-tetrahydroquinolin-6-yl)-6-methyl-3,6-dihydro-2H-1,3,4-thiadiazin-2-one] was 48.3 nM; that for `CC1SC(=O)NN=C1c1cc(C#N)c2c(c1)CC(=O)N2` (stereo not shown) [Example #77, 5-(6-methyl-2-oxo-3,6-dihydro-2H-1,3,4-thiadiazin-5-yl)-2-oxoindoline-7-carbonitrile] was 41.6 nM.
To `C[C@@H]1SC(=O)NN=C1c1cc(F)c2c(c1)CC(=O)N2` [Example #78, (S)-5-(7-fluoro-2-oxoindolin-5-yl)-6-methyl-3,6-dihydro-2H-1,3,4-thiadiazin-2-one] belongs 7.8 nM.
To `CC1SC(=O)NN=C1c1cc(Cl)c2c(c1)CNC2=O` (stereo not shown) [Example #79, 5-(7-chloro-1-oxoisoindolin-5-yl)-6-methyl-3,6-dihydro-2H-1,3,4-thiadiazin-2-one] belongs 20.3 nM.
As for `CC1SC(=O)NN=C1c1cc(Cl)c2c(c1)C(C)(C)NC2=O` (stereo not shown) [Example #80, 5-(7-chloro-3,3-dimethyl-1-oxoisoindolin-5-yl)-6-methyl-3,6-dihydro-2H-1,3,4-thiadiazin-2-one], the IC50 stood at 20.6 nM.
To `O=C1Cc2cc(-c3cc(Cl)c4[nH]c(=O)oc4c3)cnc2N1` [Example #84, 4-chloro-6-(2-oxo-2,3-dihydro-1H-pyrrolo[2,3-b]pyridin-5-yl)benzo[d]oxazol-2 (3H)-one] belongs 112 nM; to `CC1(C)C(=O)Nc2c(Cl)cc(-c3cnc4c(c3)CCC(=O)N4)cc21` [Example #87, 6-(7-chloro-3,3-dimethyl-2-oxoindolin-5-yl)-3,4-dihydro-1,8-naphthyridin-2 (1H)-one], 3.4 nM; to `CC1CC(=O)NN=C1c1ccc2nc(Nc3ccc4ncsc4c3)n(C)c2c1` (stereo not shown) [compound 10, 6-(2-(benzo[d]thiazol-6-ylamino)-1-methyl-1H-benzo[d]imidazol-6-yl)-5-methyl-4,5-dihydropyridazin-3 (2H)-one], 7.3 nM.
To `CC1CC(=O)NN=C1c1cc(Br)c2c(c1)C(C)(C)CC(=O)N2` (stereo not shown) [compound 11, 8-bromo-4,4-dimethyl-6-(4-methyl-6-oxo-1,4,5,6-tetrahydropyridazin-3-yl)-3,4-dihydroquinolin-2 (1H)-one] belongs 51.3 nM; to `COc1ccc(-c2cc(C3=NNC(=O)CC3C)cc3c2NC(=O)CC3)cn1` (stereo not shown) [compound 14, 8-(6-methoxypyridin-3-yl)-6-(4-methyl-6-oxo-1,4,5,6-tetrahydropyridazin-3-yl)-3,4-dihydroquinolin-2 (1H)-one], 50.2 nM.

(Values after patent publication US20240308973A1, “PHOSPHODIESTERASE 3 (PDE3) INHIBITORS” (Zoetis Services LLC, priority 2023, published 2024).)
